According to the NIST ThermoML archive (doi:10.1016/j.jct.2016.03.030):
Numbers after ± are expanded uncertainties.

Assays:
[1] = for viscosity: 100 kPa, Liquid, Falling or rolling sphere viscometry
[2] = Molar enthalpy of transition or fusion; conditions: DSC
[3] = xn = mol fraction of the nth substance listed; conditions: 100 kPa, Liquid, x2 = 0; for viscosity: Falling or rolling sphere viscometry; for mass density: Vibrating tube method

SMILES | Normal melting temperature ([1]; Crystal 1, DTA) | Molar enthalpy of transition or fusion ([2]; Crystal 1) | viscosity ([3]; 298.15 K) | viscosity ([3]; 303.15 K) | viscosity ([3]; 308.15 K) | viscosity ([3]; 313.15 K) | viscosity ([3]; 318.15 K) | mass density ([3]; 318.15 K) | viscosity ([3]; 323.15 K) | mass density ([3]; 323.15 K) | viscosity ([3]; 328.15 K) | mass density ([3]; 328.15 K) | viscosity ([3]; 333.15 K) | mass density ([3]; 333.15 K) | viscosity ([3]; 338.15 K) | mass density ([3]; 338.15 K) | viscosity ([3]; 343.15 K) | mass density ([3]; 343.15 K) | also measured
CCCCC[N+]1(C)CCOCC1.[Br-] [4-methyl-4-pentylmorpholinium bromide] | 194 ± 0.41 °C | 8.13 ± 1.1 kJ/mol | – | – | – | – | – | – | – | – | – | – | – | – | – | – | – | – | –
CCC[N+]1(C)CCOCC1.[Br-] [4-methyl-4-propylmorpholinium bromide] | 180.79 ± 0.41 °C | 11.4 ± 1.1 kJ/mol | – | – | – | – | – | – | – | – | – | – | – | – | – | – | – | – | Triple point temperature ([1]; Crystal 2, DSC): 341.13 ± 0.77 K; Molar enthalpy of transition or fusion ([2]; Crystal 2): 2.3 ± 1 kJ/mol
O [water] + CCCC[N+]1(C)CCOCC1.[Br-] | – | – | 0.912 ± 0.091 mPa·s | 0.819 ± 0.082 mPa·s | 0.739 ± 0.074 mPa·s | 0.671 ± 0.067 mPa·s | 0.611 ± 0.061 mPa·s | 990.1 ± 1 kg/m3 | 0.559 ± 0.056 mPa·s | 987.9 ± 1 kg/m3 | 0.514 ± 0.052 mPa·s | 985.6 ± 1 kg/m3 | 0.474 ± 0.048 mPa·s | 983.2 ± 1 kg/m3 | 0.439 ± 0.044 mPa·s | 980.3 ± 1 kg/m3 | 0.408 ± 0.041 mPa·s | 978.1 ± 1 kg/m3 | –
O [water] + CCC[N+]1(C)CCOCC1.[Br-] | – | – | 0.912 ± 0.091 mPa·s | 0.819 ± 0.082 mPa·s | 0.739 ± 0.074 mPa·s | 0.671 ± 0.067 mPa·s | 0.611 ± 0.061 mPa·s | 990.1 ± 1 kg/m3 | 0.559 ± 0.056 mPa·s | 987.9 ± 1 kg/m3 | 0.514 ± 0.052 mPa·s | 985.6 ± 1 kg/m3 | 0.474 ± 0.048 mPa·s | 983.2 ± 1 kg/m3 | 0.439 ± 0.044 mPa·s | 980.3 ± 1 kg/m3 | 0.408 ± 0.041 mPa·s | 978.1 ± 1 kg/m3 | –
O [water] + CCCCC[N+]1(C)CCOCC1.[Br-] | – | – | 0.912 ± 0.091 mPa·s | 0.819 ± 0.082 mPa·s | 0.739 ± 0.074 mPa·s | 0.671 ± 0.067 mPa·s | 0.611 ± 0.061 mPa·s | 990.1 ± 1 kg/m3 | 0.559 ± 0.056 mPa·s | 987.9 ± 1 kg/m3 | 0.514 ± 0.052 mPa·s | 985.6 ± 1 kg/m3 | 0.474 ± 0.048 mPa·s | 983.2 ± 1 kg/m3 | 0.439 ± 0.044 mPa·s | 980.3 ± 1 kg/m3 | 0.408 ± 0.041 mPa·s | 978.1 ± 1 kg/m3 | –
CCCC[N+]1(C)CCOCC1.[Br-] [4-butyl-4-methylmorpholinium bromide] | 211.32 ± 0.41 °C | 14.1 ± 1.1 kJ/mol | – | – | – | – | – | – | – | – | – | – | – | – | – | – | – | – | –
CCCCC[N+]1(C)CCCCC1.[Br-] [1-methyl-1-pentylpiperidinium bromide] | 173.7 ± 0.41 °C | 8.82 ± 1.1 kJ/mol | – | – | – | – | – | – | – | – | – | – | – | – | – | – | – | – | –
O [water] | – | – | – | – | – | – | – | – | – | – | – | – | – | – | – | – | – | – | viscosity ([1]; 298.15 K): 0.912 ± 0.091 mPa·s; viscosity ([1]; 303.15 K): 0.819 ± 0.082 mPa·s; viscosity ([1]; 308.15 K): 0.739 ± 0.074 mPa·s; viscosity ([1]; 313.15 K): 0.671 ± 0.067 mPa·s; viscosity ([1]; 318.15 K): 0.611 ± 0.061 mPa·s; viscosity ([1]; 323.15 K): 0.559 ± 0.056 mPa·s; viscosity ([1]; 328.15 K): 0.514 ± 0.052 mPa·s; viscosity ([1]; 333.15 K): 0.474 ± 0.048 mPa·s; viscosity ([1]; 338.15 K): 0.439 ± 0.044 mPa·s; viscosity ([1]; 343.15 K): 0.408 ± 0.041 mPa·s; Normal melting temperature ([1]; Crystal, visual observation): 0.00 ± 0.39 °C
O [water] + CCCCC[N+]1(C)CCCCC1.[Br-] | – | – | 0.912 ± 0.091 mPa·s | 0.819 ± 0.082 mPa·s | 0.739 ± 0.074 mPa·s | 0.671 ± 0.067 mPa·s | 0.611 ± 0.061 mPa·s | 990.1 ± 1 kg/m3 | 0.559 ± 0.056 mPa·s | 987.9 ± 1 kg/m3 | 0.514 ± 0.052 mPa·s | 985.6 ± 1 kg/m3 | 0.474 ± 0.048 mPa·s | 983.2 ± 1 kg/m3 | 0.439 ± 0.044 mPa·s | 980.3 ± 1 kg/m3 | 0.408 ± 0.041 mPa·s | 978.1 ± 1 kg/m3 | –
